Test results published in a melting point compilation (Tetko et al.; mined from patent text by program, amines drawn as free bases though some values may be those of a salt).

Row | Compound | melting point
1 | CC(=O)Oc1ccc(C(C)C)c(NC(=O)CN2CCN(CCSc3nc4ccccc4o3)CC2)c1C(C)C | 129 to 131 °C
2 | CCOC(=O)c1cn(-c2nccs2)c2c(F)c(F)c(F)cc2c1=O | 172 to 174 °C
3 | CC(C)=CCN1Cc2c(Br)ccc3[nH]c(=S)n(c23)C[C@@H]1C | 161 °C
4 | COc1ccc(C(=C(C)C(=O)O)c2ccc(OC)cc2)cc1 | 134 to 135 °C
5 | O=C(O)C1CC2CC(CP(=O)(O)O)CCC2CN1 (stereo unspecified) | 208 to 211 °C
6 | COc1ccc(-c2c(Cl)c(CN3C(=O)CCC3=O)nc3sc4c(c23)CC(C)(C)C(O)C4)cc1 (stereo unspecified) | 227 to 229 °C
7 | COc1c(Cc2c[nH]cn2)cccc1C(N)=O | 160 °C
8 | O=C(O)c1ccc2c(c1)S(=O)(=O)c1ccccc1C2=O | 285 to 287 °C
9 | CC(C)Cc1cc(=O)c2cc(OCCCCCN3CCC(O)CC3)ccc2o1 | 98 to 99 °C
10 | Clc1ccc(C=CC(C=Cc2ccc(Cl)cc2)=NNC2=NCC(c3ccccc3)(c3ccccc3)N2)cc1 | 227 °C
11 | CN1CCN(c2cc3c(cc2F)c(=O)c(C(=O)O)cn3NCC=O)CC1 | 252 to 253 °C
12 | CCCC(=NOc1ccc(Cl)cc1)c1cc(Cl)ccc1NS(=O)(=O)C(F)(F)F | 62.5 to 64.5 °C
13 | CON(C(=O)c1cn(C)nc1C(F)F)C(C)c1ccc(I)cc1 (stereo unspecified) | 72 to 74 °C
14 | COc1ccc2c3c(cn2S(=O)(=O)c2ccc(C)cc2)CC(NC(=O)C(F)(F)F)C(=O)c13 (stereo unspecified) | 189 to 190 °C
15 | Cc1cc(C)c2cccc(OCc3c(Cl)ccc(S(=O)(=O)N4CCC[C@H]4C(=O)N4CCN(C(=O)c5cccc(C=NN)c5)CC4)c3Cl)c2n1 | 158 °C
16 | CCOCCNC(=O)COc1ccn2nc(-c3ccccc3)c(-c3ccc(=O)n(C(C)C)n3)c2c1 | 126 to 128 °C
17 | CC(C)(C)n1c(=O)c2c(-c3nc(C4CC4)no3)ncn2c2ccccc21 | 182 to 184 °C
18 | CC(=O)c1c[nH]cc1-c1cccc(Cl)c1Cl | 192 to 194 °C
19 | CNc1nc(-c2cccc(-c3cncc4ccccc34)c2)c2cc(OC)c(OC)cc2n1 | 181 to 183 °C
20 | CC(C)c1ccc(S(=O)(=O)c2ccccc2)cc1S(=O)(=O)NC1CCN(C(=O)c2ccccc2F)CC1 | 210 to 212 °C
21 | Oc1ccc(-c2nc(Br)c[nH]2)cc1Cl | 225 to 227 °C
22 | CC(C)n1nc(-c2cc(NC(=O)c3ccccc3)cnc2-c2ccccc2)ccc1=O | 207 to 208 °C
23 | CCC(=O)c1cc2c(s1)CCC1CC(=O)N(c3ccc(Cl)cc3)N=C21 (stereo unspecified) | 135 to 138 °C
24 | COc1cc(OCC(=O)N[C@H]2CCN(Cc3ccccc3)C2)ccc1C(=NN)C(=O)c1ccc(O)c(N)c1 | 139 to 141 °C

Row | Compound | melting point
25 | CNC(=O)Nc1snc(N(C)C)c1C(N)=O | 221 °C
26 | CC(C)COc1ccccc1-c1ccc(C(N)=O)c(=O)[nH]1 | 180 °C
27 | CN(CCN(C)c1ccc(OS(=O)(=O)C(F)(F)F)nc1)c1ccc(OS(=O)(=O)C(F)(F)F)nc1 | 146 to 148 °C
28 | Cc1cc(C(=O)C(=O)c2ccc(OC(F)F)cc2)ccc1F | 77 to 78 °C
29 | N#Cc1cccc(OCc2ccccc2)c1[N+](=O)[O-] | 94 to 95 °C
30 | COc1ccc(CNc2nc(NCCCc3ccc(C(C)=O)cc3)nc3ncccc23)cc1OC | 184 to 185 °C
31 | CCOC(=O)c1ccc(O)c(F)c1 | 79 to 80 °C
32 | Cc1nc(NCC(C)C)sc1C(=O)c1ccc(Cl)c([N+](=O)[O-])c1 | 138 to 142 °C
33 | CC(C)(C)OC(=O)N(Cc1ccccc1)[C@H](COP(=O)(Oc1ccccc1)Oc1ccccc1)C(=O)O | 108 to 109 °C
34 | O=C(COc1ncccn1)NC1CCN(Cc2ccc(Cl)c(Cl)c2)CC1 | 120 to 122 °C
35 | CN(CCN(CCC12CC3CC(CC(C3)C1)C2)C(=O)NCCCc1ccncc1)S(C)(=O)=O | 165 to 167 °C
36 | c1ccc2c(c1)CCn1ccnc1C2=C1CCN(CCn2cccc2)CC1 | 166 °C
37 | CC(Oc1cc2sc(NC(=O)NCCN3CCOCC3)nc2cc1Cl)c1c(Cl)ccc(F)c1Cl (stereo unspecified) | 196 to 198 °C
38 | O=S(=O)(Cl)c1ccc(Cl)c(CCl)c1Cl | 68 °C
39 | CCCCCCCCCc1cc(=O)c2c(O)cc(O)cc2o1 | 101 °C
40 | CCCc1nc(C(O)C(C)(C)C)c(C(N)=O)n1Cc1ccc(-c2ccccc2C(=O)C(=O)O)cc1 (stereo unspecified) | 128 to 130 °C
41 | Cn1c(COc2ccc(CC3SC(=O)NC3=O)cc2)nc2ccc(Oc3ccccn3)cc21 (stereo unspecified) | 200 to 210 °C
42 | CCCNC(=O)c1nc(C)ccc1C(=O)Nc1c(Cl)ccc(C)c1C#N | 129 to 131 °C
43 | CCOC(=O)c1n[nH]c(CC)c1Sc1cc(Cl)cc(Cl)c1 | 138 to 139 °C
44 | CCC1(C)CC(NC(=O)c2ccccc2)C(C)C(C)(CC)N1OC(C)c1ccccc1 (stereo unspecified) | 112 to 147 °C
45 | C#CCN(Cc1cc2c(=O)n(C)c(CO)nc2cc1Cl)c1ccc(C(=O)OC(C)(C)C)cc1 | 109 to 111 °C
46 | CC(C)N(CCCCS(=O)(=O)CC(=O)O)c1cnc(-c2ccccc2)c(-c2ccccc2)n1 | 183 to 185 °C
47 | Cn1c(C(F)(F)F)cc(=O)n(-c2cc(OCSc3ccc(Cl)cc3)c(Cl)cc2F)c1=O | 141 to 142 °C
48 | CCCN=C(Cc1ccccc1)N1CC2C(=O)CCC(c3ccccc3)(c3ccccc3)C2C1 (stereo unspecified) | 86 °C

Row | Compound | melting point
49 | COc1ccc(C(=O)Nc2cccc3[nH]ccc23)c(O)c1 | 190 °C
50 | CCCn1nnc2c(C(N)=O)ncn2c1=O | 167 °C
51 | Clc1cc(CBr)c2noc(-c3ccccc3)c2c1 | 142 to 144 °C
52 | CCOC(=O)c1cn(-c2ccccc2)c2c(F)c(F)c(F)cc2c1=O | 190 to 192 °C
53 | C=Cc1cccc2c1-c1ccc3c(c1C(C1(C)CC=CCC1)O2)C(C)=CC(C)(C)N3 (stereo unspecified) | 198 to 201 °C
54 | NC(=O)C1CCC(=O)N1CC#CCN1CCCC1 (stereo unspecified) | 146 to 148 °C
55 | CCn1nnnc1C(C=CC=O)=C(c1ccc(F)cc1)c1ccc(F)cc1 | 163 to 165 °C
56 | CCCCc1ncc(CO)n1Cc1ccccc1Cl | 86 to 88 °C
57 | Cc1ccc(C(=O)c2cccc(S)n2)cc1 | 179 to 181 °C
58 | CCOC(=O)C(C(=O)OCC)=C1NC(=O)N(Cc2ccccc2)C1=O | 149 to 151 °C
59 | CC(=O)SCCc1ncn(C(c2ccccc2)(c2ccccc2)c2ccccc2)n1 | 135 to 140 °C
60 | CC(C)(C)OC(=O)N1CCc2snc(O)c2C1 | 174 to 177 °C
61 | CC(c1ccc(-c2ccccc2)c(F)c1)c1csc(NC(=S)Nc2ccccc2)n1 (stereo unspecified) | 176 to 177 °C
62 | CC1=NN(C)C(=O)C1(Br)C(=O)c1ccc(Cl)cc1Cl (stereo unspecified) | 89 to 90 °C
63 | CCOC(=O)CCN1C(=O)NC(C)(CCc2cc(C(C)(C)C)c(O)c(C(C)(C)C)c2)C1=O (stereo unspecified) | 100 °C
64 | CCCCCCCCCCC[C@H](CC(=O)N[C@@H](CO)C(=O)OCc1ccccc1)OC(=O)CCCCCC | 46 to 48 °C
65 | CCOc1cccc(CC(=O)O)c1OCCCc1cn(-c2ccc(C(F)(F)F)cn2)nc1C1CCCCC1 | 156 to 157 °C
66 | O=c1c(-c2ccccc2)cc(Cl)c2n1CCSc1ccsc1-2 | 179 °C
67 | CCOC(=O)c1cn(-c2ccc(F)cc2F)c2nc(O)c(F)cc2c1=O | 243 to 248 °C
68 | CC(O)(C(=O)Nc1ccc(S(=O)(=O)c2ccccc2)cc1)C(F)(F)F (stereo unspecified) | 164 to 166 °C
69 | Cc1c(-c2ccccc2)c2cc(Cl)ccc2n1CC(N)=O | 223 to 224 °C
70 | CCCc1nc2c(N)nc3ccccc3c2n1CC(C)(C)C(N)=O | 219 to 221 °C
71 | OCCN(CCO)CCCNc1nc2cc(Cl)c(Cl)cc2nc1-c1ccccn1 | 88 to 90 °C
72 | CC(C)(C)OC(=O)N1C[C@@H](S)C[C@@H]1CN(C(=O)OC(C)(C)C)S(N)(=O)=O | 90 to 91.5 °C

Row | Compound | melting point
73 | CCc1nn(CC(=O)O)c(CC)c1Oc1cc(Cl)cc(Cl)c1 | 157 to 158 °C
74 | CC(C)(O)[C@H](CO)NC(=O)[C@@H](CC(=O)O)n1ccc(-c2ccc(-c3ccccc3)cc2)c1 | 150 to 152 °C
75 | O=c1[nH]c(=O)n(C2CC(OCc3ccc(F)cc3)C(CO)O2)cc1F (stereo unspecified) | 130 to 131 °C
76 | COc1ccc(C2=NN(Cc3ccccn3)C(=O)[C@H]3CC=CC[C@@H]23)cc1OC (relative stereo) | 146 to 147 °C
77 | COc1ccc(C(CCCCC(=O)NO)C2=C(C)C(=O)c3ccccc3C2=O)cc1 (stereo unspecified) | 129 to 130 °C
78 | COc1cc(-c2nc(N)sc2SCC2CCCC2)c(OC)cc1C | 88 to 89 °C
79 | Cc1c(C)c(S(=O)(=O)C[N+](=O)[O-])c(C)c2c1OCCC2 | 104 to 106 °C
80 | Cc1nccn1-c1nc(-c2ccc(Cl)cc2)c(CCC2=NCCO2)o1 | 119 to 120 °C
81 | N#CC(=C1Nc2ccccc2O1)S(=O)(=O)c1ccccc1 | 215 to 218 °C
82 | CCCCn1cnc2c(OC)nc(Nc3ccc(OCC)nc3)nc21 | 174 to 176 °C
83 | CC(C)(C)OC(=O)c1ccccc1-c1ccc(CNC(=O)C2(N)CCOCC2)cc1 | 125 to 127 °C
84 | CN1CC(C(=O)COC(=O)c2ccccc2)CC2c3cccc4[nH]cc(c34)CC21 (stereo unspecified) | 163 to 165 °C
85 | COc1cc(NC(=O)OC(C)(C)C)c(Cl)c(OC)c1 | 94.5 to 95.5 °C
86 | Cc1cccc(OCC(=O)NCCO[N+](=O)[O-])c1 | 40 to 42 °C
87 | CC1(C)CCC(C)(C)c2cc(Oc3ccc(C=O)cc3)ccc21 | 75 to 76 °C
88 | CC=CCONC(C)=C1C(=O)CC(CCSc2ccc(C(F)(F)F)cc2)CC1=O (stereo unspecified) | 72 to 73 °C
89 | C/C(=C\c1ccc(OCCN(C)C)cc1)c1ccc2c(c1)SCC(C)(C)CS2 | 46 to 47 °C
90 | O=C(O)CCc1cc(F)cc(F)c1 | 56 °C
91 | Cc1cc(C)nc(-n2nc(S(=O)(=O)Nc3c(F)cccc3F)nc2C)n1 | 228 to 230 °C
92 | CC1=C(C(=O)OCCN(C)Cc2ccc(Cl)cc2)C(c2cccc([N+](=O)[O-])c2)C(C(=O)OCC2CC2)=C(C)N1 (stereo unspecified) | 115 to 116 °C
93 | COC(=O)Cc1cc(C(=O)c2ccccc2Cl)c(N)s1 | 102 to 105 °C
94 | COc1cccc(CN2C(=NCCCn3ccnc3)c3cccc4cccc2c34)c1 | 95 to 96 °C
95 | COC(=O)Cn1c(=O)[nH]c(=O)c2ccc(Cl)cc21 | 255 to 258 °C
96 | Cc1ccc(C2c3c(cc(C)c(Br)c3C)OC2(C)C)cc1 (stereo unspecified) | 116 to 118 °C
